From ChEMBL document CHEMBL1155021, “Spheciosterol sulfates, PKCzeta inhibitors from a philippine sponge Spheciospongia sp” (J Nat Prod, 2008)
Where a name gives a salt, the structure may show the parent alone.

These molecules were tested against T1, Protein kinase C zeta type (Homo sapiens, UniProt Q05513) (assay: Inhibition of PKCzeta by TR-FRET based LanthaScreen assay).
T1 sequence (Q05513 whole entry): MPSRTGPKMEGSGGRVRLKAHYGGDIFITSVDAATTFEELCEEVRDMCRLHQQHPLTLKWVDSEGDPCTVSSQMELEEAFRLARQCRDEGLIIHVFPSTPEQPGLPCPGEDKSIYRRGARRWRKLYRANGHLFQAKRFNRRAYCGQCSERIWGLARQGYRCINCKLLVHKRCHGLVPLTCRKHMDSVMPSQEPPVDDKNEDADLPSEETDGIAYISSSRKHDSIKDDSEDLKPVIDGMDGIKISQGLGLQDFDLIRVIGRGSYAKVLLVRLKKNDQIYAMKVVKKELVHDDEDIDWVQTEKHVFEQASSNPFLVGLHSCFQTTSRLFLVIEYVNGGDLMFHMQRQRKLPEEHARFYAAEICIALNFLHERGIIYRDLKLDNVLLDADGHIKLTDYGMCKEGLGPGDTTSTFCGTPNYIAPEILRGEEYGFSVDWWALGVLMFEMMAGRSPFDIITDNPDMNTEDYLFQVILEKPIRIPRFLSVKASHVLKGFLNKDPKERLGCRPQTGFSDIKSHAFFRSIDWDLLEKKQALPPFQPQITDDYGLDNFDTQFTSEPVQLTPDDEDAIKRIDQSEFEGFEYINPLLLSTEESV

IC50 [nM] | SMILES
1590 | C=C(C)C(CC)CC[C@@H](C)[C@H]1CC[C@@]2(C)[C@@H]3C[C@H](OS(=O)(=O)O)[C@H]4[C@@H](O)[C@H](OS(=O)(=O)O)[C@@H](OS(=O)(=O)O)C[C@]4(C)C3=CC[C@]12C (some centres undefined) [SPHECIOSTEROL SULFATE A]
530 | C=C(C)C(CC[C@@H](C)[C@H]1CC[C@@]2(C)[C@@H]3C[C@H](OS(=O)(=O)O)[C@H]4[C@@H](O)[C@H](OS(=O)(=O)O)[C@@H](OS(=O)(=O)O)C[C@]4(C)C3=CC[C@]12C)C(C)C (some centres undefined) [SPHECIOSTEROL SULFATE B]
110 | C=C(C)C(C)(C)C(C)CC[C@@H](C)[C@H]1CC[C@@]2(C)[C@@H]3C[C@H](OS(=O)(=O)O)[C@H]4[C@@H](O)[C@H](OS(=O)(=O)O)[C@@H](OS(=O)(=O)O)C[C@]4(C)C3=CC[C@]12C (some centres undefined) [SPHECIOSTEROL SULFATE C]
1210 | CC(C)C1(CC[C@@H](C)[C@H]2CC[C@@]3(C)[C@@H]4C[C@H](OS(=O)(=O)O)[C@H]5[C@@H](O)[C@H](OS(=O)(=O)O)[C@@H](OS(=O)(=O)O)C[C@]5(C)C4=CC[C@]23C)CC1C (some centres undefined) [TOPSENTIASTEROL SULFATE E]
